One block for each molecule: values may come before it.
Columns and labels:
[1] = test system: human neutrophils from COPD patients; experiment: CSE-induced IL-8 release in peripheral blood neutrophils from COPD patients; type: cell-based; details: stimulus CSE 5%, 6 h, mean ± SEM; for IC50: Homo sapiens, Neutrophil, read-out: −log IC50 (IL-8 release) (converted)
Method: (§1) Neutrophils were isolated from peripheral venous blood by standard laboratory procedures. In brief, peripheral venous blood was mixed with dextran 500 at 3% (in 0.9% saline) in a proportion of 2:1. This mixture was incubated at room temperature for 30 min until erythrocytes were sedimented. The upper phase was carefully collected and added on Ficoll-Paque Histopaque 1077 (Amershan Pharmacia Biotech, Barcelona, Espana) density gradient in a proportion of 3:1. The two phases generated were centrifuged at 150 g, 4° C. for 30 min. Thus, the pellet obtained (which is consisted a mixture of neutrophils and low proportion of residual erythrocytes and traces of eosinophils and basophils) was resuspended in an erythrocyte lysis buffer (Biolegend, UK) for 5 min in ice. Cell suspension was washed two times with phosphate buffer (PBS). […] Neither purity nor viability was affected in the study's different experimental conditions.
(§2) CSE was prepared as follows: Briefly, the smoke of a research cigarette (2R4F; Tobacco Health Research, University of Kentucky, Ky., USA) was generated by a respiratory pump (Apparatus Rodent Respirator 680; Harvard, Germany) through a puffing mechanism related to the human smoking pattern (3 puff/min; 1 puff 35 ml; each puff of 2 s duration with 0.5 cm above the filter) and was bubbled into a flask containing 25 ml of pre-warmed (37° C.) Roswell Park Memorial Institute (RPMI)-1640 culture medium. The CSE solution was sterilized by filtration through a 0.22-μm cellulose acetate sterilizing system (Corning, N.Y.). The resultant CSE solution was considered to be 100% CSE and was used for experiments within 30 min of preparation. CSE 10% corresponds approximately to the exposure associated with smoking two packs per day. The quality of the prepared CSE solution was assessed based on the absorbance at 320 nm, which is the specific absorption wavelength of peroxynitrite. Stock solutions with an absorbance value of 3.0±0.1 were used. To test for cytotoxicity from CSE, isolated neutrophils were treated with CSE concentrations of up to 5% for […].
(§3) Isolated human neutrophils from healthy volunteers and COPD patients were incubated with Compound A (0.01 nM-100 μM) and Dexamethasone (0.1 nM-1 μM) or vehicle for 30 minutes before incubation with or without CSE 5% for 6 hours in standard cell culture conditions (37° C. and 5% CO2). Supernatants were collected to measure different inflammatory markers.
(§4) IL-8 was measured by ELISA using a commercially available kit.
(§5) Experiments were done in triplicate in […] three patients per experimental condition.
(§6) Neutrophils from healthy and COPD patients were stimulated with CSE 5% in the presence of Compound A (0.01 nM-100 μM) or dexamethasone (DEX; 0.1 nM-1 μM) for 6 h and IL-8 supernatants were measured.

[2] = test system: human neutrophils from healthy volunteers; experiment: CSE-induced IL-8 release in peripheral blood neutrophils from healthy non-smokers; type: cell-based; details: stimulus CSE 5%, 6 h, mean ± SEM; for IC50: Homo sapiens, Neutrophil, read-out: −log IC50 (IL-8 release) (converted)
Method: as §1, §2, §3, §4, §5, §6

MIF = MIF mRNA expression in peripheral neutrophils from COPD patients (RT-PCR); type: cell-based, human; details: CSE 5%; Compound A exposure
Method: (§7) Measurement of basal RNA expression of corticosteroid resistant mediators: Total RNA was isolated from peripheral human neutrophils from COPD patients in basal conditions and after experimental conditions. Cells were homogenized and RNA was extracted using TriPure® Isolation Reagent (Roche, Indianapolis, USA). The reverse transcription was performed in 300 ng of total RNA with TaqMan reverse transcription reagents kit (Applied Biosystems, Perkin-Elmer Corporation, CA, USA). 1.5 μl of result cDNA was amplified with specific predesigned primers (Applied Biosystems) for MIF (cat no Hs00236988), MKP-1 (cat no Hs00610256), PI3K-δ (cat n° Hs00192399), PI3Kγ (cat n° Hs00277090) and GAPDH (cat no 4310884E) as endogenous control in a 7900HT Fast Real-Time PCR System (Applied Biosystem) using Universal Master Mix (Applied Biosystems). Relative quantification of these different transcripts was determined with the 2^−ΔΔct method and normalized to control groups.
(§8) mRNA expression of the MIF, MKP-1, PI3K-δ and PI3Kγ genes was measured in basal conditions and at the end of the experiments.
(§9) Experiments were done in triplicate in at least three patients per experimental condition.

MKP-1 = MKP-1 mRNA expression in peripheral neutrophils from COPD patients (RT-PCR); type: cell-based, human; details: CSE 5%; 10 nM or 100 nM Compound A
Method: as §7, §8, §9

PI3Kγ = PI3Kγ mRNA expression in peripheral neutrophils from COPD patients (RT-PCR); type: cell-based, human; details: CSE 5%; 10 nM or 100 nM Compound A
Method: as §7, §8, §9

Balb/c mice [3] = experiment: Reversal of corticosteroid insensitivity in chronic cigarette smoke induced cell infiltration in male Balb/c mice; type: in vivo; details: Mus musculus, Macrophage, inhaled or nasal; murine chronic COPD model; intranasal; read-out: ED50 (cell count in BAL, macrophage infiltration)
Method: Animals were acclimatized for seven days prior to the start of the experiment. Animals were randomly distributed to various groups based on their body weights. Mice were exposed to the mainstream smoke of 2 cigarettes from day 1 to day 11. Exposure to the smoke of each cigarette lasted for 10 min (each cigarette was completely burned in the first two minutes, followed by an air flow with animal ventilator) and were exposed for the next 20 min with fresh room air. After every second cigarette an additional break of 20 min with exposure to fresh room air was conducted. Control animals were exposed to the room air chamber. Corticosteroid, fluticasone was administered by intranasal route from day 6 to day 11 before 30 mins whole body smoke exposure. Mice were exposed to the mainstream smoke of 1 cigarette from day 12 to day 14. […] The total number of white blood cells was determined in BAL fluid and blood using a blood cell counter and adjusted to 1×10^6 cell/ml. Differential cell count was calculated manually. […] The number of each cell type among 300 white blood cells in the cell smear was determined and expressed as a percentage, and the number of neutrophils and macrophages in each BAL fluid were calculated. In addition BAL supernatant were analysed for various cytokines using ELISA assay.

Balb/c mice [4] = experiment: Chronic cigarette smoke induced cell infiltration in male Balb/c mice (BALF cells and cytokines); type: in vivo
Method: Animals were acclimatized for seven days prior to the start of the experiment. Animals were randomly distributed to various groups based on their body weights. Mice were exposed to the mainstream smoke of 2 cigarettes from day 1 to day 11. Exposure to the smoke of each cigarette lasted for 10 min (each cigarette was completely burned in the first two minutes, followed by an air flow with animal ventilator) and were exposed for the next 20 min with fresh room air. After every second cigarette an additional break of 20 min with exposure to fresh room air was conducted. Control animals were exposed to the room air chamber. Test compound was administered by the intranasal route as suspension from day 12 to day 14 before 30 mins whole body smoke exposure. Mice were exposed to the mainstream smoke of 1 cigarette from day 12 to day 14. On day 15, 24 hours after the last cigarette smoke (CS) exposure animals were exsanguinated under anaesthesia, and the trachea was cannulated and the lungs were lavaged with 0.5 ml aliquots of heparinised PBS (1 unit/ml) four times through tracheal cannula (total volume 2 ml). Bronchioalveolar (BAL) collected was stored at 2-8° C. until assayed for total cell and differential leukocyte count. BAL fluid was centrifuged (500×g for 10 min) and the resulting cell pellet was resuspended in 0.5 ml of heparinised saline. The total number of white blood cells was determined in BAL fluid and blood using a blood cell counter and adjusted to 1×10^6 cell/ml. Differential cell count was calculated manually. Forty microliters of the cell suspension was centrifuged using cytospin 3 to prepare a cell smear. The cell smear was stained with a blood staining solution for differentiation and microscopically observed by identifying each cell according to its morphological characteristics. The number of each cell type among 300 white blood cells in the cell smear was determined and expressed as a percentage, and the number of neutrophils and macrophages in each BAL fluid were calculated. In addition BAL supernatant were analysed for various cytokinines using ELISA assay.

PI3K = PI3K activity (PIP3 production, PI3-Kinase Activity ELISA) in neutrophils from COPD patients; type: cell-based, human; details: Compound A 10 nM, 1 h, CSE 5% 30 min
Method: Measurement of Pi3K isoforms: To measure PI3K activity, neutrophils from COPD patients were isolated and incubated with Compound A at 10 nM for 1 h. Then cells were stimulated with CSE 5% for 30 min. After cell stimulation, neutrophils were centrifuged and total protein was extracted from neutrophils. Total protein amount was measured using The Bio-Rad assay (Bio-Rad Laboratories Ltd., Herts, UK) to ensure equal amount. PI3K activity was measured using the PI3-Kinase Activity ELISA: Pico (cat. no k-1000 s, Echelon Bioscience, Salt Lake City, USA) according to the manufacturer's protocol. In brief, PI3-K reactions were run with the Class I PI3-K physiological substrate PI(4,5)P2 (PIP2). The enzyme reactions, PIP3 standards and controls were then mixed and incubated with PIP3 binding protein that is highly specific and sensitive to PIP3. This mixture was then transferred to a PIPI3-coated microplate for competitive binding. Afterwards, a peroxidase-linked secondary detector and colorimetric detection was used to detect the amount of PIP3 produced by PI3-K through comparing the enzyme reactions with a PIP3 standard curve.
as §9

- IC50 [1]: 13.5 nM
Structure (SMILES): C[C@@H]1C[C@H]2[C@@H]3CCC4=CC(=O)C=C[C@]4(C)[C@@]3(F)[C@@H](O)C[C@]2(C)[C@@]1(O)C(=O)CO [dexamethasone, reference compound]
- Maximal % Inhibition of IL-8 release [1]: 19.84 ± 11.46 %
- IC50 [2]: 14.1 nM
- Maximal % Inhibition of IL-8 release [2]: 83.9%

- IC50 [1]: 47.9 nM
Structure (SMILES): CC(C)Oc1ccc(-c2nn([C@@H](C)c3oc4cccc(F)c4c(=O)c3-c3cccc(F)c3)c3ncnc(N)c23)cc1F [Compound A]
- expression of MIF (mRNA) (MIF): not significantly affected
- expression of MKP1 (mRNA) (MKP-1): increased the expression of MKP1 near to control levels
- CSE induced PI3Kγ expression (mRNA) (PI3Kγ): significant reduction
- Maximal % Inhibition of IL-8 release [1]: 85.14%
- IC50 [2]: 295 nM
- Maximal % Inhibition of IL-8 release [2]: 97.4±5.3%
- ED50 (Balb/c mice [3]): 0.093 mg/kg
- Macrophage count in BAL fluid (Balb/c mice [4]; 0.003-3 mg/kg intranasal, day 12 to 14, vs disease controls): significantly reduced toward normal
- IFNγ in BALF (% inhibition) (Balb/c mice [4]; dose 0.003 mg/kg intranasal): 0%
- IL-6 in BALF (% inhibition) (Balb/c mice [4]; dose 0.003 mg/kg intranasal): 11%
- IL-12/IL-23 in BALF (% inhibition) (Balb/c mice [4]; dose 0.003 mg/kg intranasal): 0%
- TNFα in BALF (% inhibition) (Balb/c mice [4]; dose 0.003 mg/kg intranasal): 17%
- IFNγ in BALF (% inhibition) (Balb/c mice [4]; dose 0.03 mg/kg intranasal): 25%
- IL-6 in BALF (% inhibition) (Balb/c mice [4]; dose 0.03 mg/kg intranasal): 44%
- IL-12/IL-23 in BALF (% inhibition) (Balb/c mice [4]; dose 0.03 mg/kg intranasal): 0%
- TNFα in BALF (% inhibition) (Balb/c mice [4]; dose 0.03 mg/kg intranasal): 40%
- IFNγ in BALF (% inhibition) (Balb/c mice [4]; dose 0.3 mg/kg intranasal): 90%
- IL-6 in BALF (% inhibition) (Balb/c mice [4]; dose 0.3 mg/kg intranasal): 99%
- IL-12/IL-23 in BALF (% inhibition) (Balb/c mice [4]; dose 0.3 mg/kg intranasal): 100%
- TNFα in BALF (% inhibition) (Balb/c mice [4]; dose 0.3 mg/kg intranasal): 99%
- PI3K activity measured as PIP3 production (PI3K): completely suppressed
